13 molecules from patent publication US6339096B1, “Urethanes derived from azacycloalkanes, the thio and dithio analogues thereof and their use as cholesterol biosynthesis inhibitors” (Boehringer Ingelheim Pharma KG, priority 1998, dated 2002) can be followed below.

Each structure is given as a SMILES string. Counter-ions that a name gives are not always drawn.

The test system of assay [1] is ^14C-acetate incorporation into the steroids which can be precipitated with digitonin. Briefly: Inhibition of 14C-acetate incorporation into the steroids which can be precipitated with digitonin. It counts as cell-based. The note with it: for inhibition at 0.01 µM / inhibition at 0.001 µM: read-out: percentage by which the compound inhibits the 14C-acetate incorporation. On the procedure:
I. Measuring the Inhibition of ^14C-acetate Incorporation into the Steroids which can be Precipitated with Digitonin
The inhibitory effect was investigated using the method described in J. Lipid. Res. 37, 148-157 [1996] at test concentrations of 10^−8 and 10^−9 mol/l.
The IC50 values of compounds H, I, K and M were determined.

In assay [2] the target is T1, 2,3-epoxysqualene-lanosterol-cyclase (Rattus norvegicus, UniProt P48450).
T1 construct: The quantity of 2,3-epoxysqualene formed therefore serves as a direct measurement of the potency on the animal as a whole; from tissue; host or cells: living rat; 2,3-epoxysqualene measured in the liver
T1 sequence (P48450 1-733): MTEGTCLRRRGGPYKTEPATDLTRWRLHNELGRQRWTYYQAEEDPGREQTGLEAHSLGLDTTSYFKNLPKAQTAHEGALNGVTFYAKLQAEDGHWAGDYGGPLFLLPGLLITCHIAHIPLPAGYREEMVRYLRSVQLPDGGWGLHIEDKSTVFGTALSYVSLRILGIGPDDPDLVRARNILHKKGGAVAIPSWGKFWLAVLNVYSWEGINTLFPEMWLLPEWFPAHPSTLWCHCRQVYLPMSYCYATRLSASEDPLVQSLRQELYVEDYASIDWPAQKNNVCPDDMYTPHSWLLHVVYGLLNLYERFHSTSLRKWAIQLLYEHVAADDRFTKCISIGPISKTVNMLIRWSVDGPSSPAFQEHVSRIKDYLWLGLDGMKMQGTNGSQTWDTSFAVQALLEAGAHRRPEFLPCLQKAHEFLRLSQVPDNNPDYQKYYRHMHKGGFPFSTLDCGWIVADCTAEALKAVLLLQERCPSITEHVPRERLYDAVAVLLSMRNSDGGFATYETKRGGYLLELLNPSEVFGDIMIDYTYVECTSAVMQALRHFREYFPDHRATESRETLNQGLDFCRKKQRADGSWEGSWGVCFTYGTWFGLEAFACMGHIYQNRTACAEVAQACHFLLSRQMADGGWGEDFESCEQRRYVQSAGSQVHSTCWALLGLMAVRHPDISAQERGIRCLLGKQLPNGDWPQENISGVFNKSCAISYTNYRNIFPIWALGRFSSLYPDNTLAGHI
The assay is described as follows: In-vivo activity in the rat after oral administration: 2,3-epoxysqualene level in the liver. Here is the method: II. Measuring the In-vivo Activity in the Rat after Oral Administration
Inhibiting the enzyme 2,3-epoxysqualene-lanosterol-cyclase causes an increase in the 2,3-epoxisqualene levels in the liver and plasma. The quantity of 2,3-epoxysqualene formed therefore serves as a direct measurement of the potency on the animal as a whole. The amounts were determined using the method described in J. Lipid. Res. 38, 564-575, [1997] after t=3 or 8 hours after administration of the substance in concentrations of c=0.01, 0.03, 0.1, 0.3 and 1.0 mg/kg. Table 3 which follows gives the results obtained for the abovementioned substances A, B, C, D, E, G, H, I and K by way of example.
In the control animals there were no measurable 2,3-epoxisqualene levels under these conditions.

Assay [3] deals with normolipaemic golden hamster. Briefly: Lipid reduction in the normolipaemic golden hamster. It counts as in vivo. The note with it: compared with control group. On the procedure:
III. Lipid Reduction in the Normolipaemic Golden Hamster This was determined using the method described in J. Lipid. Res. 38, 564-575, (1997). At the end of the experiment the total cholesterol, β-lipoprotein-cholesterol and HDL-cholesterol were determined and compared with the values of a control group which were fed without any test substance. The lipid-lowering activity of the abovementioned compound H was tested.

Regarding `CN(C)Cc1ccc([C@H]2CC[C@H](N(C)C(=O)c3ccc(Cl)cc3)CC2)cc1` [(V), reference compound], the IC50 in assay [1] was found to be 3.8 nM. The results for the “percentage by which the compound inhibits the 14C-acetate incorporation” value in assay [1] (test concentration 10^−8 mol/l) and in assay [1] (test concentration 10^−9 mol/l) were −59% and −23%, respectively.
For `CN(C)Cc1ccc(SC2CCN(C(=S)SCc3ccccc3)CC2)cc1.Cl` [(A), N-(benzylthio)thiocarbonyl-4-[4-(dimethylaminomethyl)phenylthio]piperidine-hydrochloride], in assay [1] (test concentration 10^−8 mol/l), the inhibition at 0.01 µM was found to be 85%. The inhibition at 0.001 µM in assay [1] (test concentration 10^−9 mol/l) is 53%. In addition, the “2,3-epoxysqualene concentration in the liver (rat)” value (shortened to “2,3-epoxysqualene concentration”) came to 2.0 µg/g in assay [2] (c=0.3 mg/kg, t=3 h); 1.2 µg/g in assay [2] (c=0.3 mg/kg, t=8 h); 9.3 µg/g in assay [2] (c=1.0 mg/kg, t=3 h); 9.8 µg/g in assay [2] (c=1.0 mg/kg, t=8 h).
`CN(C)Cc1ccc(C=C2CCN(C(=S)SCc3ccccc3)CC2)cc1` [(F), N-(benzylthio)thiocarbonyl-4-[4-(dimethylaminomethyl)benzyliden]piperidine-hydrochloride]: the inhibition at 0.01 µM in assay [1] (test concentration 10^−8 mol/l) was found to be 84%. Moreover, the inhibition at 0.001 µM in assay [1] (test concentration 10^−9 mol/l) was 45%.
The matching figures for `Cc1ccc(OC(=S)N2CCC(Cc3ccc(CN(C)C)cc3)CC2)cc1` [(L), 4-[4-(dimethylaminomethyl)benzyl]-N-(4-methylphenoxy)thiocarbonylpiperidine-hydrochloride]: 88% and 64%.
In the case of `CN(C)Cc1ccc(CC2CCN(C(=O)Oc3ccc(F)cc3)CC2)cc1.Cl` [(M), 4-[4-(dimethylaminomethyl)benzyl]-N-(4-fluorphenoxy)carbonylpiperidine-hydrochloride], in assay [1], half-maximal inhibition (IC50) was put at 1.5 nM. In assay [1] (test concentration 10^−8 mol/l), the “percentage by which the compound inhibits the 14C-acetate incorporation” value was −84%. The “percentage by which the compound inhibits the 14C-acetate incorporation” value in assay [1] (test concentration 10^−9 mol/l) is recorded as −59%. Moreover, in assay [3] (dose 57.5 mg/kg/day), the HDL-cholesterol was −20.4%, the Total cholesterol is recorded as −26.8% and the β-Lipoprotein-cholesterol is recorded as −31.6%.
With `CN(C)Cc1ccc(C(=O)C2CCN(C(=S)SCc3ccccc3)CC2)cc1.Cl` [(B), N-(benzylthio)thiocarbonyl-4-[4-(dimethylaminomethyl)benzoyl]piperidine-hydrochloride], the inhibition at 0.01 µM in assay [1] (test concentration 10^−8 mol/l) was determined as 85%. The inhibition at 0.001 µM in assay [1] (test concentration 10^−9 mol/l) is 47%. Besides, the “2,3-epoxysqualene concentration” value in assay [2] (c=0.3 mg/kg, t=3 h) was determined as 4.5 µg/g; in assay [2] (c=0.3 mg/kg, t=8 h), 5.8 µg/g; in assay [2] (c=1.0 mg/kg, t=3 h) it was 39.2 µg/g; in assay [2] (c=1.0 mg/kg, t=8 h), 42.0 µg/g.
In assay [1], `CN(C)Cc1ccc(CC2CCN(C(=O)Oc3ccc(Cl)cc3)CC2)cc1.Cl` [(H), N-(4-chlorophenoxy)carbonyl-4-[4-(dimethylaminomethyl)benzyl]piperidine-hydrochloride] had an IC50 of 0.8 nM. In assay [1] (test concentration 10^−8 mol/l), the inhibition at 0.01 µM turned out to be 80%. For the same molecule, the inhibition at 0.001 µM in assay [1] (test concentration 10^−9 mol/l) is 45%. The “2,3-epoxysqualene concentration” value was found to be 1.0 µg/g in assay [2] (c=0.1 mg/kg, t=3 h); 0.8 µg/g in assay [2] (c=0.1 mg/kg, t=8 h); 56.3 µg/g in assay [2] (c=1.0 mg/kg, t=3 h); 20.7 µg/g in assay [2] (c=1.0 mg/kg, t=8 h). The HDL-cholesterol in assay [3] (dose 6.5 mg/kg/day) was −3.4%; in assay [3] (dose 19.9 mg/kg/day) it was −8.2%; in assay [3] (dose 62.3 mg/kg/day), −28.5%. Moreover, the Total cholesterol in assay [3] (dose 6.5 mg/kg/day) is recorded as −8.3%; in assay [3] (dose 19.9 mg/kg/day), −11.0%; in assay [3] (dose 62.3 mg/kg/day) it was −32.1%. For the same molecule, the β-Lipoprotein-cholesterol in assay [3] (dose 6.5 mg/kg/day) was −13.0%; in assay [3] (dose 19.9 mg/kg/day) it was −13.2%; in assay [3] (dose 62.3 mg/kg/day), −33.7%.
`CN(C)Cc1ccc(CC2CCN(C(=S)SCc3ccccc3)CC2)cc1.Cl` [(E), N-(benzylthio)thiocarbonyl-4-[4-(dimethylaminomethyl)benzyl]piperidine-hydrochloride]: the inhibition at 0.01 µM in assay [1] (test concentration 10^−8 mol/l) stood at 87%. The inhibition at 0.001 µM in assay [1] (test concentration 10^−9 mol/l) came out at 47%. Further, the “2,3-epoxysqualene concentration” value in assay [2] (c=0.01 mg/kg, t=3 h) is 0.9 µg/g; in assay [2] (c=0.01 mg/kg, t=8 h), 1.0 µg/g; in assay [2] (c=0.1 mg/kg, t=3 h) it was 5.6 µg/g; in assay [2] (c=0.1 mg/kg, t=8 h), 4.4 µg/g.
In the case of `CN(C)Cc1ccc(CC2CCN(C(=S)Oc3ccc(Cl)cc3)CC2)cc1.Cl` [(G), N-(4-chlorophenoxy)thiocarbonyl-4-[4-(dimethylaminomethyl)benzyl]piperidine-hydrochloride], in assay [1] (test concentration 10^−8 mol/l), the inhibition at 0.01 µM was 83%. Besides, the inhibition at 0.001 µM in assay [1] (test concentration 10^−9 mol/l) was determined as 56%. For the same molecule, the “2,3-epoxysqualene concentration” value in assay [2] (c=0.1 mg/kg, t=3 h) is 10.3 µg/g; in assay [2] (c=0.1 mg/kg, t=8 h), 11.5 µg/g; in assay [2] (c=1.0 mg/kg, t=3 h), 87.4 µg/g; in assay [2] (c=1.0 mg/kg, t=8 h) it was 134.2 µg/g.
For the molecule `CN(C)Cc1ccc(SC2CCN(C(=O)Oc3ccc(Cl)cc3)CC2)cc1.Cl` [(D), N-(4-chlorophenoxy)carbonyl-4-[4-(dimethylaminomethyl)phenylthio]piperidine-hydrochloride], the inhibition at 0.01 µM in assay [1] (test concentration 10^−8 mol/l) stood at 86%. For the same molecule, in assay [1] (test concentration 10^−9 mol/l), the inhibition at 0.001 µM stood at 55%. The “2,3-epoxysqualene concentration” value in assay [2] (c=0.01 mg/kg, t=3 h) was determined as 1.3 µg/g; in assay [2] (c=0.01 mg/kg, t=8 h) it was 1.0 µg/g; in assay [2] (c=0.1 mg/kg, t=3 h) it was 1.4 µg/g; in assay [2] (c=0.1 mg/kg, t=8 h) it was 1.8 µg/g.
Molecule `Cc1ccc(CC(=O)O[C@H]2CC[C@H](c3ccc(CN(C)C)cc3)CC2)cc1` [(W), trans-O-(p-tolylacetyl)-4-(4-dimethylaminomethylphenyl)cyclohexanol, reference compound] gave an IC50 in assay [1] of 9.6 nM. In assay [1] (test concentration 10^−8 mol/l), the inhibition at 0.01 µM was 72%. Also, in assay [1] (test concentration 10^−9 mol/l), the inhibition at 0.001 µM was found to be 21%.
In the case of `CN(C)Cc1ccc(CC2CCN(C(=O)OCc3ccccc3)CC2)cc1.Cl` [(I), N-benzyloxycarbonyl-4-[4-(dimethylaminomethyl)benzyl]piperidine-hydrochloride], the IC50 in assay [1] was found to be 1.2 nM. Besides, the inhibition at 0.01 µM in assay [1] (test concentration 10^−8 mol/l) amounted to 85%. Besides, the inhibition at 0.001 µM in assay [1] (test concentration 10^−9 mol/l) was determined as 47%. Moreover, the “2,3-epoxysqualene concentration” value is 1.0 µg/g in assay [2] (c=0.1 mg/kg, t=3 h); 26.1 µg/g in assay [2] (c=1.0 mg/kg, t=3 h); 10.0 µg/g in assay [2] (c=1.0 mg/kg, t=8 h).
`CN(C)Cc1ccc(SC2CCN(C(=O)OCc3ccccc3)CC2)cc1.Cl` [(C), N-benzyloxycarbonyl-4-[4-(dimethylaminomethyl)phenylthio]piperidine-hydrochloride]: the inhibition at 0.01 µM in assay [1] (test concentration 10^−8 mol/l) amounted to 78%. Moreover, in assay [1] (test concentration 10^−9 mol/l), the inhibition at 0.001 µM came to 57%. Also, the “2,3-epoxysqualene concentration” value was 0.6 µg/g in assay [2] (c=0.01 mg/kg, t=3 h); 3.0 µg/g in assay [2] (c=0.01 mg/kg, t=8 h); 0.5 µg/g in assay [2] (c=0.1 mg/kg, t=3 h); 1.3 µg/g in assay [2] (c=0.1 mg/kg, t=8 h); 0.5 µg/g in assay [2] (c=0.3 mg/kg, t=3 h); 1.8 µg/g in assay [2] (c=0.3 mg/kg, t=8 h). Also, the “2,3-epoxysqualene concentration” value in assay [2] (c=1.0 mg/kg, t=3 h) amounted to 3.8 µg/g; in assay [2] (c=1.0 mg/kg, t=8 h), 2.0 µg/g.

In general, IC50 refers to the concentration that inhibits the measured activity by half. A lower IC50 goes with inhibition by little substance.
